Patent publication US8759528B2, “Piperidine derivatives, pharmaceutical compositions and uses thereof” (Boehringer Ingelheim International GmbH, priority 2011, dated 2014)

What follows are compounds tested against T1, human ACC2 (Homo sapiens, UniProt O00763) (assay: ACC2 spectrophotometric 384 well assay (NADH-linked, coupled lactate dehydrogenase/pyruvate kinase)). Details: hACC2 construct lacking the 128 N-terminal amino acids; 25° C., 340 nm, 15 minutes.
T1 construct: lacks the 128 amino acids at the N-terminus for increased solubility (nt 385-6966 in Genbank entry AJ575592); made in house; host or cells: insect cells (baculoviral expression system)
T1 sequence (O00763 129-2458 limits assumed): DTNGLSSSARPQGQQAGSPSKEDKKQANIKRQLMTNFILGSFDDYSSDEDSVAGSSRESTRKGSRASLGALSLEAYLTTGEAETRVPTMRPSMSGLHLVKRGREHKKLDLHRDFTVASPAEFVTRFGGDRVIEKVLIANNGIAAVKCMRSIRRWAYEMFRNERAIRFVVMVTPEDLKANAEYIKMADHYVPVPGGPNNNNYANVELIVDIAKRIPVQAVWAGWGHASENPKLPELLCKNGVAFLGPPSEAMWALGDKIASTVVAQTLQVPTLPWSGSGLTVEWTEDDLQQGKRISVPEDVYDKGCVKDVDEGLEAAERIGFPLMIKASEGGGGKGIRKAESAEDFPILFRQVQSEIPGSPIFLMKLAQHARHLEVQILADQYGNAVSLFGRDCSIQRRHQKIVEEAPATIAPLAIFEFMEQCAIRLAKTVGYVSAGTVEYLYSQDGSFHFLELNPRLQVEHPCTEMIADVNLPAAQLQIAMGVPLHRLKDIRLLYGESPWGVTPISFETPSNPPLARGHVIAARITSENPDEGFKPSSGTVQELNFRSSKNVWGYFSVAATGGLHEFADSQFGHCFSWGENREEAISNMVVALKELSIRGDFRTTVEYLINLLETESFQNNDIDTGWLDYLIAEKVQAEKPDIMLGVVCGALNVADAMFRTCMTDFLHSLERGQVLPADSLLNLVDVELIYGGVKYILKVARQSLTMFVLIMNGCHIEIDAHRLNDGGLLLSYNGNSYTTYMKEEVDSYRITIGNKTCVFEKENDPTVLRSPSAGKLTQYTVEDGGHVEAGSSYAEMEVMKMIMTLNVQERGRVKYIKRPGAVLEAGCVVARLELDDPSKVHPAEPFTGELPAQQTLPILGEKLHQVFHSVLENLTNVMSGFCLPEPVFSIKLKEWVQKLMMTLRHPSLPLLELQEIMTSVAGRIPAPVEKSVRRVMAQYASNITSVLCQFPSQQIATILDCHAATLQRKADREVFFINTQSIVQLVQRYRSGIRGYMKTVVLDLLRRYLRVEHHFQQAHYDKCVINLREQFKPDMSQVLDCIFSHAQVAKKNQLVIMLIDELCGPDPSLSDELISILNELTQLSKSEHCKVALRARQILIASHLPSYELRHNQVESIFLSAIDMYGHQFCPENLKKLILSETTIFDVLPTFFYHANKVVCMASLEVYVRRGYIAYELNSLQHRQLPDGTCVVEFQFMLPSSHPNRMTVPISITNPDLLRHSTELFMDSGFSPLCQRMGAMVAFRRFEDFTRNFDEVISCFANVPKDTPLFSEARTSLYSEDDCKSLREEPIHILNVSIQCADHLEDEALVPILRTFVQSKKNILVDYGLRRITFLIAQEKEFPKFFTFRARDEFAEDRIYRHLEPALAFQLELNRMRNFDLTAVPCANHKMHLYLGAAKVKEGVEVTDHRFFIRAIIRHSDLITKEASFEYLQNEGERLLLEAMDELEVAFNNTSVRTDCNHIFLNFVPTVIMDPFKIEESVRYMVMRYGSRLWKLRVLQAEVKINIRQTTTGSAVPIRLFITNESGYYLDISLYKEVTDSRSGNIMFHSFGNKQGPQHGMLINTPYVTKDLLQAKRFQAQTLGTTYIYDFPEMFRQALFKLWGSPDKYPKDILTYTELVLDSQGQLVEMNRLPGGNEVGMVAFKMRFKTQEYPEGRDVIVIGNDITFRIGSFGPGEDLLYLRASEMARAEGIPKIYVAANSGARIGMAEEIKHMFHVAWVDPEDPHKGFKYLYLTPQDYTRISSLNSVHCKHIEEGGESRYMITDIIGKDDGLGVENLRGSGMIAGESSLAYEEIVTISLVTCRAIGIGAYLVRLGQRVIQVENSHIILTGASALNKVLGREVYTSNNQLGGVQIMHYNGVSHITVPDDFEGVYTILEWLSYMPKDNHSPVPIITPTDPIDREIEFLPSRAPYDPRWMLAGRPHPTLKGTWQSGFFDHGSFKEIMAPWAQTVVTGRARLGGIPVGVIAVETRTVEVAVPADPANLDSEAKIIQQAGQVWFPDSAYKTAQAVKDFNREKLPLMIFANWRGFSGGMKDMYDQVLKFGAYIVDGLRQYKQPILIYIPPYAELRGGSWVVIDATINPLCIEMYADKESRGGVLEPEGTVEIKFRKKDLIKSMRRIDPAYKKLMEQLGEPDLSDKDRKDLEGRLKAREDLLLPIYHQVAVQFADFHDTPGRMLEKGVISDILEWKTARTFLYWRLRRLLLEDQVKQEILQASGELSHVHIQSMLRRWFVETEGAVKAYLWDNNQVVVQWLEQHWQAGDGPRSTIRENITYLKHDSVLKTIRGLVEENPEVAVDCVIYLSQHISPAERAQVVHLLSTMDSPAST
Assay type: biochemical
Method: Spectrophotometric 384 Well Assay
Malonyl CoA formation by acetyl CoA carboxylases is stoichometrically linked to the consumption of ATP. ACC2 activity is measured in a NADH-linked kinetic method measuring ADP generated during the ACC reaction using a coupled lactate dehydrogenase/pyruvate kinase reaction.
For biological testing, a human ACC2 construct which lacks the 128 amino acids at the N-terminus for increased solubility (nt 385-6966 in Genbank entry AJ575592) is cloned. The protein is then expressed in insect cells using a baculoviral expression system. Protein purification is performed by anion exchange. All compounds are dissolved in dimethyl sulfoxide (DMSO) to a concentration of 10 mM.
Assay reactions are then carried out in 384-well plates, with hACC2 in an appropriate dilution and at final assay concentrations (f.c.) of 100 mM Tris (pH 7.5), 10 mM trisodium citrate, 25 mM KHCO3, 10 mM MgCl2, 0.5 mg/ml BSA, 3.75 mM reduced L-glutathione, 15 U/ml lactate dehydrogenase, 0.5 mM phosphoenolpyruvate, 15 U/ml pyruvate kinase, compounds at different concentrations at final DMSO concentrations of 1%.
The enzymatic reaction is then started by addition of a mixture of NADH, acetyl Coenzyme A (both […].) and ATP (500 uM f.c.). The decrease of the optical density (slope S) is then determined at 25° C. at a wavelength of 340 nm over 15 minutes in a spectrophotometric reader.
Each assay microtiter plate contains wells with vehicle instead of compound as controls for the non-inhibited enzyme (100% CTL; ‘HIGH’) and wells without acetyl-CoA as controls for non-specific NADH degradation (0% CTL; ‘LOW’).
The slope S is used for calculation of % CTL=(S(compound)−S(‘LOW’))/(S('HIGH)−S(‘LOW’))*100. Compounds will give values between 100% CTL (no inhibition) and 0% CTL (complete inhibition).
For IC50 value determination, the sample slope in the presence of the test compound after subtraction of the low controls (S(compound)−S(‘LOW’)) are used.
An IC50 value is derived from the compound slopes at different dosages after subtraction of the low controls (S(compound)−S(‘LOW’)) by non-linear regression curve fitting (equation y=(A+((B−A)/(1+((C/x)^D))))).
With `CCOc1ccc(N2CCC(c3ccc(C(C)C(=O)NC4CC4)cc3)CC2)c(F)c1` (stereo not drawn) [Example 1.13] the IC50 was 140 nM. Work on `CCCOc1ccc(N2CCC(c3ccc(C(C)C(=O)NCC)cc3)CC2)cc1` (stereo not drawn) [Example 1.8] yielded an IC50 of 180 nM. In the case of `CCNC(=O)C(C)c1ccc(C2CCN(c3ccc(OC(C)CC)cc3)CC2)cc1` (stereo not drawn) [Example 1.4], the IC50 is reported as 890 nM. Compound `CCNC(=O)C(C)c1ccc(N2CCC(c3cccc(OCC)c3)CC2)cc1` (stereo not drawn) [Example 7.13] has an IC50 of 4840 nM. `CCCNC(=O)C(C)c1ccc(C2CCN(c3ccc(OCC)cc3)CC2)cc1` (stereo not drawn) [Example 4.15] gave an IC50 of 290 nM. With `CCOc1ccc(N2CCC(c3ccc(C(C)C(=O)N(C)C)cc3)CC2)cc1` (stereo not drawn) [Example 4.4] the IC50 was 6650 nM. `CN(c1nccc(N2CCC(c3ccc(CC(N)=O)cc3)CC2)n1)C1CCCC1` [Example 4.7] showed an IC50 of 1260 nM. `CCNC(=O)C(C)c1ccc(N2CCC(c3cccc(OC4CCC4)c3)CC2)cc1` (stereo not drawn) [Example 7.8] gave an IC50 of 1650 nM. `CCNC(=O)C(C)c1ccc(N2CCC(c3ccc(OC4CCC4)cc3)CC2)cc1` (stereo not drawn) [Example 7.9] showed an IC50 of 120 nM. With `CC(C)CNC(=O)Cc1ccc(C2CCN(c3ccnc(N(C)C4CCCC4)n3)CC2)cc1` [Example 4.13] the IC50 was 1860 nM. For `CCCOc1cccc(C2CCN(c3ccc(C(C)C(=O)NCC)cc3)CC2)c1` (stereo not drawn) [Example 7.11], the IC50 was 3850 nM. `CC(C(=O)NC1CC1)c1ccc(C2CCN(c3ccc(OCC4CC4)cc3C#N)CC2)cc1` (stereo not drawn) [Example 3.1, 2-{4-[1-(2-Cyano-4-cyclopropylmethoxy-phenyl)-piperidin-4-yl]-phenyl}-N-cyclopropyl-propionamide] gave an IC50 of 150 nM. For `CCNC(=O)C(C)c1ccc(N2CCC(c3ccc(OCC4CC4)cc3F)CC2)cc1` (stereo not drawn) [Example 7.2], the IC50 was 1010 nM. In the case of `CCNC(=O)C(C)c1ccc(C2CCN(c3ccc(OC4CCC4)cc3)CC2)cc1` (stereo not drawn) [Example 1.5], the IC50 is reported as 120 nM. Compound `CCNC(=O)C(C)c1ccc(C2CCN(c3ccnc(OCC)n3)CC2)cc1` (stereo not drawn) [Example 6.1, 2-{4-[1-(2-Ethoxy-pyrimidin-4-yl)-piperidin-4-yl]-phenyl}-N-ethyl-propionamide] has an IC50 of 5480 nM. For `CCNC(=O)C(C)c1ccc(C2CCN(c3ccc(OC(C)C)cc3OC)CC2)cc1` (stereo not drawn) [Example 1.9], the IC50 was 510 nM. Work on `CCCOc1ccc(N2CCC(c3ccc(C(C)C(=O)NC4CC4)cc3)CC2)c(C#N)c1` (stereo not drawn) [Example 3.4] yielded an IC50 of 120 nM. With `CN(c1nccc(N2CCC(c3ccc(CC(=O)NC4CCCC4)cc3)CC2)n1)C1CCCC1` [Example 4.10] the IC50 was 4180 nM. `CC(C(=O)NC1CC1)c1ccc(C2CCN(c3ccc(OCC4CC4)cc3)CC2)cc1` (stereo not drawn) [Example 1.14] was tested, and the IC50 was 80 nM. Work on `CCNC(=O)C(C)c1ccc(C2CCN(c3ccnc(NC(C)C)n3)CC2)cc1` (stereo not drawn) [Example 5.3] yielded an IC50 of 7630 nM. `CCNC(=O)C(C)c1ccc(N2CCC(c3ccc(OCC)cc3)CC2)cc1` (stereo not drawn) [Example 7.1, 2-{4-[4-(4-Ethoxy-phenyl)-piperidin-1-yl]-phenyl}-N-ethyl-propionamide] was tested, and the IC50 was 1000 nM. Compound `CCNC(=O)C(C)c1ccc(C2CCN(c3ccc(OC4CC4)cc3)CC2)cc1` (stereo not drawn) [Example 1.2] has an IC50 of 210 nM. `CCNC(=O)C(C)c1ccc(C2CCN(c3ccc(OCC)cc3)CC2)cc1` (stereo not drawn) [Example 1.1, 2-{-4-[1-(4-Ethoxy-phenyl)-piperidin-4-yl]-phenyl}-N-ethyl-propionamide] gave an IC50 of 240 nM. With `CCOc1ccc(N2CCC(c3ccc(C(C)C(=O)Nc4ccccc4)cc3)CC2)cc1` (stereo not drawn) [Example 4.6] the IC50 was 80 nM. With `CCNC(=O)C(C)c1ccc(C2CCN(c3ccc(OC4CCC4)cc3OC)CC2)cc1` (stereo not drawn) [Example 2.2] the IC50 was 250 nM. With `CCCOc1ccc(N2CCC(c3ccc(C(C)C(=O)NCC)cc3)CC2)c(OC)c1` (stereo not drawn) [Example 1.7] the IC50 was 320 nM. Compound `CCNC(=O)C(C)c1ccc(C2CCN(c3ccnc(OC(C)C)n3)CC2)cc1` (stereo not drawn) [Example 6.2] has an IC50 of 3050 nM. `CCOc1ccc(N2CCC(c3ccc(C(C)C(=O)NC4CC4)cc3)CC2)c(C#N)c1` (stereo not drawn) [Example 3.3] gave an IC50 of 140 nM. `CN(c1nccc(N2CCC(c3ccc(CC(=O)N4CCOCC4)cc3)CC2)n1)C1CCCC1` [Example 4.9] gave an IC50 of 5530 nM. `CCCOc1ccc(C2CCN(c3ccc(C(C)C(=O)NCC)cc3)CC2)c(C)c1` (stereo not drawn) [Example 7.10] gave an IC50 of 840 nM. In the case of `CCNC(=O)C(C)c1ccc(N2CCC(c3cccc(OCC4CC4)c3)CC2)cc1` (stereo not drawn) [Example 7.6], the IC50 is reported as 2310 nM. With `CN(c1nccc(N2CCC(c3ccc(CC(=O)NCc4ccccc4)cc3)CC2)n1)C1CCCC1` [Example 4.12] the IC50 was 7940 nM. Work on `CCNC(=O)C(C)c1ccc(N2CCC(c3ccc(OCC4CC4)cc3)CC2)cc1` (stereo not drawn) [Example 7.5] yielded an IC50 of 360 nM. `CCN(C)C(=O)Cc1ccc(C2CCN(c3ccnc(N(C)C4CCCC4)n3)CC2)cc1` [Example 4.8] gave an IC50 of 12500 nM. Compound `CN(c1nccc(N2CCC(c3ccc(CC(=O)Nc4ccccc4)cc3)CC2)n1)C1CCCC1` [Example 4.11] has an IC50 of 720 nM. `CCNC(=O)C(C)c1ccc(C2CCN(c3ccc(OC4CC4)cc3OC)CC2)cc1` (stereo not drawn) [Example 1.11] gave an IC50 of 520 nM. `CCNC(=O)C(C)c1ccc(C2CCN(c3ccnc(N(C)C4CCCC4)n3)CC2)cc1` (stereo not drawn) [Example 5.1, 2-(4-{1-[2-(Cyclopentyl-methyl-amino)-pyrimidin-4-yl]-piperidin-4-yl}-phenyl)-N-ethyl-propionamide] gave an IC50 of 370 nM. Compound `CCNC(=O)C(C)c1ccc(C2CCN(c3ccnc(N(C)C)n3)CC2)cc1` (stereo not drawn) [Example 5.2] has an IC50 of 630 nM. Compound `CCNC(=O)Cc1ccc(C2CCN(c3ccnc(N(C)C4CCCC4)n3)CC2)cc1` [Example 4.2] has an IC50 of 400 nM. `CCNC(=O)C(C)c1ccc(C2CCN(c3ccc(OC)cc3C#N)CC2)cc1` (stereo not drawn) [Example 3.2] showed an IC50 of 450 nM. `CCNC(=O)C(C)c1ccc(C2CCN(c3ccc(OCC)cc3F)CC2)cc1` (stereo not drawn) [Example 1.12] showed an IC50 of 330 nM. For `CCOc1ccc(C2CCN(c3ccc(C(C)C(=O)NC4CC4)cc3)CC2)cc1` (stereo not drawn) [Example 7.3], the IC50 was 890 nM. Work on `CCNC(=O)C(C)c1ccc(C2CCN(c3ccc(OCC4CC4)cc3OC)CC2)cc1` (stereo not drawn) [Example 2.1, 2-{-4-[1-(4-Cyclopropylmethoxy-2-methoxy-phenyl)-piperidin-4-yl]-phenyl}-N-ethyl-propionamide] yielded an IC50 of 750 nM. Compound `CCCOc1ccc(C2CCN(c3ccc(C(C)C(=O)NCC)cc3)CC2)cc1` (stereo not drawn) [Example 7.4] has an IC50 of 220 nM. `CCOc1ccc(N2CCC(c3ccc(C(C)C(=O)NCC4CC4)cc3)CC2)cc1` (stereo not drawn) [Example 4.16] gave an IC50 of 650 nM. For `CCNC(=O)C(C)c1ccc(C2CCN(c3ccnc(OCC)c3)CC2)cc1` (stereo not drawn) [Example 1.6], the IC50 was 510 nM. `CCNC(=O)C(C)c1ccc(N2CCC(c3cccc(OC(C)C)c3)CC2)cc1` (stereo not drawn) [Example 7.12] gave an IC50 of 1800 nM. For `CCNC(=O)C(C)c1ccc(N2CCC(c3ccc(OC(C)C)cc3)CC2)cc1` (stereo not drawn) [Example 7.7], the IC50 was 340 nM. `CCOc1ccc(N2CCC(c3ccc(C(C)C(=O)N(C)CC)cc3)CC2)cc1` (stereo not drawn) [Example 4.5] showed an IC50 of 5210 nM. Compound `CCOc1ccc(N2CCC(c3ccc(C(C)C(N)=O)cc3)CC2)cc1` (stereo not drawn) [Example 4.17] has an IC50 of 770 nM. `CCOc1ccc(N2CCC(c3ccc(C(C)C(=O)NC4CC4)cc3)CC2)cc1` (stereo not drawn) [Example 4.1, N-Cyclopropyl-2-{4-[1-(4-ethoxy-phenyl)-piperidin-4-yl]-phenyl}-propionamide] gave an IC50 of 100 nM. With `CCOc1ccc(N2CCC(c3ccc(C(C)C(=O)NC)cc3)CC2)cc1` (stereo not drawn) [Example 4.3] the IC50 was 760 nM. Work on `COCCNC(=O)Cc1ccc(C2CCN(c3ccnc(N(C)C4CCCC4)n3)CC2)cc1` [Example 4.14] yielded an IC50 of 4830 nM. In the case of `CCNC(=O)C(C)c1ccc(C2CCN(c3ccc(OCC4CC4)cc3)CC2)cc1` (stereo not drawn) [Example 1.3], the IC50 is reported as 240 nM.
